The values below come from PubChem BioAssay AID588647 (Sanford-Burnham Center for Chemical Genomics, 2011).

Values joined by “and” are separate entries in the source; they are usually repeats but may differ in a detail not shown here. Equal entries are not always repeated. Active and inactive are the calls of the source. The rule behind the calls is not given here. A value given as a limit tells only on which side of the number the result lay.

The experiment addresses intestinal alkaline phosphatase (Mus musculus). The experiment can be described thus: mouse IAP inhibition by analogs – biochemical, luminescence, set 2, SAR follow-up (AID 588647). The following applies: purified mouse IAP, luminescent substrate read-out.

As to `COc1ccc(CNC(=O)CCNS(=O)(=O)c2ccc3[nH]c(=O)oc3c2)cc1`, the IC50 (usually the concentration that gives 50% inhibition) was 3 µM and 2.3 µM.

`O=C(CCCNS(=O)(=O)c1ccc2[nH]c(=O)oc2c1)NCCc1ccc(O)cc1`: the half-inhibitory concentration (IC50) was 4.2 µM.

As to `O=C(N/N=C/c1cccc(Cl)c1Cl)c1cc(O)c(O)c(O)c1`, the IC50 is 19.9 µM.

Turning to `O=C(N/N=C/c1c(F)cccc1Cl)c1ccc(O)cc1`, the IC50 was > 100 µM (inactive).

In the case of `O=C(NN=Cc1ccccc1F)c1ccc(O)cc1`, the IC50 was > 100 µM (inactive).

On to `O=C(CCNS(=O)(=O)c1ccc2[nH]c(=O)oc2c1)NCCc1ccc(O)cc1`, for which the IC50 was > 100 µM (inactive).

As for `O=C(NCc1ccc(F)cc1)C1CCCN(S(=O)(=O)c2ccc3[nH]c(=O)oc3c2)C1` (centres undefined), the IC50 was > 100 µM (inactive).

Take `COc1ccc(C(=O)N/N=C/c2c(F)cccc2Cl)cc1OC`: the IC50 was > 100 µM (inactive).

As to `CCc1ccc(NC(=O)C2CCCN(S(=O)(=O)c3ccc4c(c3)oc(=O)n4C)C2)cc1` (centres undefined), the IC50 was > 100 µM (inactive).

Regarding `Cc1ccc(NC(=O)CCNS(=O)(=O)c2ccc3c(c2)oc(=O)n3C)cc1C`, the IC50 is > 100 µM (inactive).

For `Cc1ccc(C)c(NC(=O)CNS(=O)(=O)c2ccc3[nH]c(=O)oc3c2)c1`, the half-inhibitory concentration (IC50) is 0.93 µM and 0.54 µM.

For the molecule `Cc1ccc(C)c(NC(=O)CCNS(=O)(=O)c2ccc3[nH]c(=O)oc3c2)c1`, the IC50 was 0.4 µM.

For the molecule `O=C(CCNS(=O)(=O)c1ccc2[nH]c(=O)oc2c1)NCc1ccc(F)cc1`, the IC50 was > 100 µM (inactive).

As to `O=C(CCNS(=O)(=O)c1ccc2[nH]c(=O)oc2c1)NCc1ccccc1Cl`, the IC50 was > 100 µM (inactive).

As to `O=C(CCNS(=O)(=O)c1ccc2c(c1)CCC2)NCCc1ccc2c(c1)OCO2`, the IC50 was > 100 µM (inactive).

In the case of `COc1ccc(CNC(=O)CNS(=O)(=O)c2ccc3[nH]c(=O)oc3c2)c(OC)c1`, the IC50 was > 100 µM (inactive).

`N#Cc1ccc(NS(=O)(=O)c2ccc3[nH]c(=O)oc3c2)cc1`: the IC50 is > 100 µM (inactive).

With `Cc1ccc(CNC(=O)C2CCCN(S(=O)(=O)c3ccc4[nH]c(=O)oc4c3)C2)cc1` (centres undefined), the IC50 was > 100 µM (inactive).

For the molecule `CC(C)c1ccc(NC(=O)C2CCCN(S(=O)(=O)c3ccc4c(c3)oc(=O)n4C)C2)cc1` (centres undefined), the IC50 is > 100 µM (inactive).

For `O=C(CCNS(=O)(=O)c1ccc2[nH]c(=O)oc2c1)NCc1ccc(Cl)cc1`, the IC50 was 88 µM.

Consider `O=C(CCNS(=O)(=O)c1ccc2[nH]c(=O)oc2c1)NCc1ccccc1`, for which the IC50 was 81 µM.

As to `O=C(N/N=C/c1c(F)cccc1F)c1ccc(O)cc1`, the IC50 is > 100 µM (inactive).

As for `CSc1cccc(NC(=O)CCNS(=O)(=O)c2ccc3c(c2)oc(=O)n3C)c1`, the IC50 was > 100 µM (inactive).

On to `CCOc1cc(C(=O)N/N=C/c2c(F)cccc2Cl)cc(OCC)c1OCC`, for which the IC50 was > 100 µM (inactive).

As to `CCc1ccc(NC(=O)CCNS(=O)(=O)c2ccc3c(c2)oc(=O)n3C)cc1`, the IC50 is > 100 µM (inactive).

Turning to `CC(C)c1ccc(/C=N/NC(=O)c2cc(O)c(O)c(O)c2)cc1`, the IC50 is 57.5 µM.

Take `COc1cccc(CNC(=O)CNS(=O)(=O)c2ccc3[nH]c(=O)oc3c2)c1`: the concentration for half-maximal inhibition (IC50) was 1.8 µM and 0.73 µM.

With `O=C(NCc1ccccc1)C1CCCN(S(=O)(=O)c2ccc3[nH]c(=O)oc3c2)C1` (centres undefined), the IC50 was > 100 µM (inactive).

Consider `COc1ccc(CNS(=O)(=O)c2ccc3[nH]c(=O)oc3c2)c(OC)c1`, for which the IC50 was 89 µM.
